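Compound exposure: 48 hours, 5 concentrations, 96-well plates. GI50 is the concentration that inhibits growth by half.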 The source made the active and inactive calls. No stated cut-off is given here; in the data, active = GI50 up to about 1.1 µM and inactive = higher.
Experiments:
Assay in all cases: NCI tumour cell line growth inhibition, 48 h
[1] = test system: M14
[2] = test system: RPMI-8226
[3] = test system: CCRF-CEM
[4] = test system: COLO 205
[5] = test system: UACC-62
[6] = test system: SF-539
[7] = test system: HT-29
[8] = test system: HOP-92
[9] = test system: EKVX
[10] = test system: DU-145
[11] = test system: MDA-N
[12] = test system: HCT-15
[13] = test system: MDA-MB-435
[14] = test system: K562
[15] = test system: SK-MEL-2
[16] = test system: SF-295
[17] = test system: SNB-75
[18] = test system: NCI-H23
[19] = test system: Malme-3M
[20] = test system: SR

COCCCN(Cc1cc(OC)c(OC)c(OC)c1)C(=S)Nc1cccc(Cl)c1
GI50 [1]: 23.7 µM (inactive)
GI50 [2]: 14.9 µM (inactive)
GI50 [3]: 25.3 µM (inactive)
GI50 [4]: 33.8 µM (inactive)
GI50 [5]: 15.4 µM (inactive)
GI50 [6]: 42.8 µM (inactive)
GI50 [7]: 18.7 µM (inactive)
GI50 [8]: 20.2 µM (inactive)
GI50 [9]: 12.3 µM (inactive)
GI50 [10]: 37.7 µM (inactive)
GI50 [11]: 19.2 µM (inactive)
GI50 [12]: 16.7 µM
GI50 [13]: 20.9 µM (inactive)
GI50 [14]: 15.7 µM (inactive)
GI50 [15]: 23.1 µM (inactive)
GI50 [16]: 31.8 µM (inactive)
GI50 [17]: 25.3 µM (inactive)

COc1cc2cnc3c4cc(O)ccc4ccc3c2cc1OC
GI50 [1]: > 100 µM (inactive)
GI50 [2]: > 100 µM (inactive)
GI50 [3]: 29.9 µM (inactive)
GI50 [4]: 12.9 µM (inactive)
GI50 [5]: 72.4 µM (inactive)
GI50 [6]: 63 µM (inactive)
GI50 [7]: > 100 µM (inactive)
GI50 [18]: 45.7 µM (inactive)
GI50 [8]: > 100 µM (inactive)
GI50 [9]: > 100 µM (inactive)
GI50 [19]: 51.1 µM (inactive)
GI50 [12]: > 100 µM
GI50 [14]: 19.7 µM (inactive)
GI50 [15]: 26.4 µM (inactive)
GI50 [20]: 34.2 µM (inactive)
GI50 [16]: 92.7 µM (inactive)
GI50 [17]: 22.6 µM (inactive)

CC[P+]1(c2ccccc2)CCCCC1
GI50 [1]: > 100 µM (inactive)
GI50 [2]: > 100 µM (inactive)
GI50 [3]: > 100 µM (inactive)
GI50 [4]: > 100 µM (inactive)
GI50 [5]: > 100 µM (inactive)
GI50 [6]: > 100 µM (inactive)
GI50 [7]: > 100 µM (inactive)
GI50 [18]: > 100 µM (inactive)
GI50 [8]: > 100 µM (inactive)
GI50 [9]: > 100 µM (inactive)
GI50 [19]: > 100 µM (inactive)
GI50 [12]: > 100 µM
GI50 [14]: > 100 µM (inactive)
GI50 [15]: > 100 µM (inactive)
GI50 [20]: > 100 µM (inactive)
GI50 [16]: > 100 µM (inactive)
GI50 [17]: > 100 µM (inactive)

Cc1cc(=O)oc2cc(OCc3c(F)cccc3Cl)ccc12
GI50 [1]: 9.35 µM (inactive)
GI50 [5]: 1.12 µM (inactive)
GI50 [6]: 11.9 µM (inactive)
GI50 [18]: > 100 µM (inactive)
GI50 [8]: 10.5 µM (inactive)
GI50 [10]: > 100 µM (inactive)
GI50 [19]: 0.728 µM (active)
GI50 [11]: 2.3 µM (inactive)
GI50 [13]: 1.78 µM (inactive)
GI50 [15]: 4.55 µM (inactive)
GI50 [16]: 17.5 µM (inactive)
GI50 [17]: 9.02 µM (inactive)

Cc1nc(N)c(N2CCN(Cc3ccccc3)CC2)c(O)n1
GI50 [1]: > 100 µM (inactive)
GI50 [2]: > 100 µM (inactive)
GI50 [3]: > 100 µM (inactive)
GI50 [4]: > 100 µM (inactive)
GI50 [6]: > 100 µM (inactive)
GI50 [7]: > 100 µM (inactive)
GI50 [18]: > 100 µM (inactive)
GI50 [9]: > 100 µM (inactive)
GI50 [10]: > 100 µM (inactive)
GI50 [19]: > 100 µM (inactive)
GI50 [11]: > 100 µM (inactive)
GI50 [12]: > 100 µM
GI50 [13]: > 100 µM (inactive)
GI50 [14]: > 100 µM (inactive)
GI50 [15]: > 100 µM (inactive)
GI50 [20]: > 100 µM (inactive)
GI50 [16]: > 100 µM (inactive)

COc1ccccc1-c1nc[nH]c1-c1ccccc1OC
GI50 [1]: 19.7 µM (inactive)
GI50 [2]: 29.3 µM (inactive)
GI50 [18]: 27.4 µM (inactive)
GI50 [8]: 17.3 µM (inactive)
GI50 [9]: 25.6 µM (inactive)
GI50 [19]: 11.2 µM (inactive)
GI50 [11]: 16.1 µM (inactive)
GI50 [12]: 35 µM
GI50 [14]: 19.9 µM (inactive)
GI50 [15]: 28.5 µM (inactive)
GI50 [16]: 26 µM (inactive)
GI50 [17]: 14.6 µM (inactive)

COc1ccc(C2SCC(=O)N2NC(=O)C(C)Oc2ccccc2Cl)cc1 (stereo not given)
GI50 [1]: 41.9 µM (inactive)
GI50 [2]: 32.4 µM (inactive)
GI50 [3]: 31.8 µM (inactive)
GI50 [4]: 26.5 µM (inactive)
GI50 [5]: 46 µM (inactive)
GI50 [6]: > 100 µM (inactive)
GI50 [7]: 65.8 µM (inactive)
GI50 [18]: 67.8 µM (inactive)
GI50 [8]: 23.7 µM (inactive)
GI50 [9]: 83.2 µM (inactive)
GI50 [10]: 94.8 µM (inactive)
GI50 [12]: 49.8 µM
GI50 [13]: 33 µM (inactive)
GI50 [14]: 47.4 µM (inactive)
GI50 [15]: 18.7 µM (inactive)
GI50 [20]: 26.1 µM (inactive)
GI50 [16]: 45 µM (inactive)
GI50 [17]: 56.6 µM (inactive)
